Source: US12534472B2, “Morphic forms of trilaciclib and methods of manufacture thereof” (Pharmacosmos Holding A/S, priority 2020, dated 2026)

Key:
Assay type in all cases: physicochemical
[1] = Dynamic Vapor Sorption (DVS); details: for Change in Mass (%)-ref Desorption / Change in Mass (%)-ref Sorption / Change in Mass (%)-ref Hysteresis: DVS; for Change in Mass (%)-ref Desorption / Change in Mass (%)-ref Sorption: 25° C.
Method: Approximately, 10-20 mg of sample was placed into a mesh vapor sorption balance pan and loaded into a DVS Intrinsic dynamic vapor sorption balance by Surface Measurement Systems. The sample was subjected to a ramping profile from 40-90% relative humidity (RH) at 10% increments, maintaining the sample at each step until a stable weight had been achieved (dm/dt 0.004%, minimum step length 30 minutes, maximum step length 500 minutes) at 25° C. After completion of the sorption cycle, the sample was dried using the same procedure to 0% RH and then a second sorption cycle back to 40% RH. Two cycles were performed. The weight change during the sorption/desorption cycles were plotted, allowing for the hygroscopic nature of the sample to be determined. XRPD analysis was then carried out on any solid retained. The above technique was used to generate the images in FIG. 5, FIG. 6, FIG. 47 and FIG. 48.

[2] = Thermodynamic solubility in water at pH 4.2
Method: Thermodynamic solubility was carried out for Pattern 1, Pattern 2/6 mixture, Pattern 3, amorphous di-HCl salts and Pattern 7 in water at pH 4.2. All samples were prepared at 30 mg/mL. Initial observations were made. The samples were agitated at ambient temperature for ca. 24 hours. The samples were collected and observations made. Observed solids were isolated via centrifugation. The mother liquor from the filtered sample was analyzed by HPLC. The pH 4.3 solution was prepared by diluting glacial acetic acid (11.6 mL) to 100 mL in deionized water, then adding sodium acetate (1.07 g) and acetic acid solution (5.9 mL) preparing up to 500 mL with deionized water; then the pH was adjusted to 4.2. The above technique was used to generate the images in FIG. 60.

[3] = Dynamic Vapor Sorption (DVS); details: Cycle 3, sorption, 25° C.

CN1CCN(c2ccc(Nc3ncc4cc5n(c4n3)C3(CCCCC3)CNC5=O)nc2)CC1 [Pattern 3, 2′-((5-(4-methylpiperazin-1-yl)pyridin-2-yl)amino)-7′,8′-dihydro-6′H-spiro[cyclohexane-1,9′-pyrazino[1′,2′:1,5]pyrrolo[2,3-d]pyrimidin]-6′-one]
Change in Mass (%)-ref Desorption ([1]; Cycle 1, desorption, target RH 0%): 0.000%
Change in Mass (%)-ref Desorption ([1]; Cycle 1, desorption, target RH 10%): 0.863%
Change in Mass (%)-ref Desorption ([1]; Cycle 1, desorption, target RH 20%): 1.274%
Change in Mass (%)-ref Desorption ([1]; Cycle 1, desorption, target RH 30%): 1.818%
Change in Mass (%)-ref Desorption ([1]; Cycle 1, desorption, target RH 40%): 2.223%
Change in Mass (%)-ref Desorption ([1]; Cycle 1, desorption, target RH 50%): 2.491%
Change in Mass (%)-ref Desorption ([1]; Cycle 1, desorption, target RH 60%): 2.727%
Change in Mass (%)-ref Desorption ([1]; Cycle 1, desorption, target RH 70%): 2.940%
Change in Mass (%)-ref Desorption ([1]; Cycle 1, desorption, target RH 80%): 3.171%
Change in Mass (%)-ref Desorption ([1]; Cycle 1, desorption, target RH 90%): 3.555%
Change in Mass (%)-ref Sorption ([1]; Cycle 1, sorption, target RH 40%): 2.516%
Change in Mass (%)-ref Sorption ([1]; Cycle 1, sorption, target RH 50%): 2.780%
Change in Mass (%)-ref Sorption ([1]; Cycle 1, sorption, target RH 60%): 2.970%
Change in Mass (%)-ref Sorption ([1]; Cycle 1, sorption, target RH 70%): 3.115%
Change in Mass (%)-ref Sorption ([1]; Cycle 1, sorption, target RH 80%): 3.288%
Change in Mass (%)-ref Sorption ([1]; Cycle 1, sorption, target RH 90%): 3.555%
Change in Mass (%)-ref Hysteresis ([1]; Cycle 1, target RH 40%): −0.292%
Change in Mass (%)-ref Hysteresis ([1]; Cycle 1, target RH 50%): −0.289%
Change in Mass (%)-ref Hysteresis ([1]; Cycle 1, target RH 60%): −0.242%
Change in Mass (%)-ref Hysteresis ([1]; Cycle 1, target RH 70%): −0.175%
Change in Mass (%)-ref Hysteresis ([1]; Cycle 1, target RH 80%): −0.117%
Change in Mass (%)-ref Desorption ([1]; Cycle 2, desorption, target RH 0%): 0.075%
Change in Mass (%)-ref Desorption ([1]; Cycle 2, desorption, target RH 10%): 0.885%
Change in Mass (%)-ref Desorption ([1]; Cycle 2, desorption, target RH 20%): 1.290%
Change in Mass (%)-ref Desorption ([1]; Cycle 2, desorption, target RH 30%): 1.711%
Change in Mass (%)-ref Desorption ([1]; Cycle 2, desorption, target RH 40%): 1.977%
Change in Mass (%)-ref Desorption ([1]; Cycle 2, desorption, target RH 50%): 2.171%
Change in Mass (%)-ref Desorption ([1]; Cycle 2, desorption, target RH 60%): 2.337%
Change in Mass (%)-ref Desorption ([1]; Cycle 2, desorption, target RH 70%): 2.510%
Change in Mass (%)-ref Desorption ([1]; Cycle 2, desorption, target RH 80%): 2.717%
Change in Mass (%)-ref Desorption ([1]; Cycle 2, desorption, target RH 90%): 3.093%
Change in Mass (%)-ref Sorption ([1]; Cycle 2, sorption, target RH 0%): 0.000%
Change in Mass (%)-ref Sorption ([1]; Cycle 2, sorption, target RH 10%): 0.831%
Change in Mass (%)-ref Sorption ([1]; Cycle 2, sorption, target RH 20%): 1.198%
Change in Mass (%)-ref Sorption ([1]; Cycle 2, sorption, target RH 30%): 1.468%
Change in Mass (%)-ref Sorption ([1]; Cycle 2, sorption, target RH 40%): 1.853%
Change in Mass (%)-ref Sorption ([1]; Cycle 2, sorption, target RH 50%): 2.092%
Change in Mass (%)-ref Sorption ([1]; Cycle 2, sorption, target RH 60%): 2.271%
Change in Mass (%)-ref Sorption ([1]; Cycle 2, sorption, target RH 70%): 2.461%
Change in Mass (%)-ref Sorption ([1]; Cycle 2, sorption, target RH 80%): 2.700%
Change in Mass (%)-ref Sorption ([1]; Cycle 2, sorption, target RH 90%): 3.093%
Change in Mass (%)-ref Hysteresis ([1]; Cycle 2, target RH 10%): 0.054%
Change in Mass (%)-ref Hysteresis ([1]; Cycle 2, target RH 20%): 0.091%
Change in Mass (%)-ref Hysteresis ([1]; Cycle 2, target RH 30%): 0.243%
Change in Mass (%)-ref Hysteresis ([1]; Cycle 2, target RH 40%): 0.124%
Change in Mass (%)-ref Hysteresis ([1]; Cycle 2, target RH 50%): 0.080%
Change in Mass (%)-ref Hysteresis ([1]; Cycle 2, target RH 60%): 0.066%
Change in Mass (%)-ref Hysteresis ([1]; Cycle 2, target RH 70%): 0.050%
Change in Mass (%)-ref Hysteresis ([1]; Cycle 2, target RH 80%): 0.018%
Change in Mass (%)-ref Sorption ([1]; Cycle 3, sorption, target RH 10%): 0.861%
Change in Mass (%)-ref Sorption ([1]; Cycle 3, sorption, target RH 20%): 1.198%
Change in Mass (%)-ref Sorption ([1]; Cycle 3, sorption, target RH 40%): 1.757%
moisture adsorbed (DVS) ([1]; at 40% RH, listed as Pattern 3 scale-up): 2.5 wt %
moisture adsorbed (DVS) ([1]; at 60% RH): 3.1 wt %
mass increase by DVS ([1]; at 90% RH): ca. 4%
moisture adsorbed (DVS) ([1]; at 90% RH, listed as Pattern 3 scale-up): 3.5 wt %
mass increase by DVS ([1]; between 0% and 90% RH): 4%
Observations at T = 24 hours ([2]; 30 mg/mL in water at pH 4.2, agitated at ambient temperature ca. 24 hours): Yellow solution
Observations at T = 0 hours ([2]; 30 mg/mL in water at pH 4.2, ambient temperature, T = 0 hours): Yellow solution (dissolved
Change in Mass (%)-ref Sorption ([3]; target RH 0%): 0.075%
Change in Mass (%)-ref Sorption ([3]; target RH 30%): 1.443%
